Laboratory results published in patent publication US4579947A, “Substituted phenylalkylpiperazinylpropyl (ureas or thioureas) useful for treatment of immunological, inflammatory and allergic disorder” (Boehringer Ingelheim Pharmaceuticals, Inc., priority 1984, dated 1986).

Experiments:
[1] = system: human leukocytes (basophils); experiment: Inhibition of human leukocyte (basophil) histamine release in vitro (rabbit anti-human IgE); format: cell-based; conditions: Leukocyte, 1 h, Table A, 60 minutes at 37° C., Int. = interference with test procedure, read-out: Inhibition IC50 (histamine release from human leukocytes (basophils))
Experimental: Separation of Leukocytes: A modification of the method of L. Lichtenstein and A. Osler, J.Exp.Med. 120, 507 (1964) was used. Heparinized human blood (80-100 ml) is mixed with 20 ml of saline (0.2%) containing 0.6 gm of dextrose and 1.2 gm dextran in propylene centrifuge tubes. The mixture is kept at ambient temperature for 60-90 minutes to allow the separation of erythrocytes from the platelet-leukocyte-rich supernate. The supernate is removed and centrifuged for 8 minutes at 110×g in cold. The leukocyte pellet is washed 2× with Tris buffer and finally suspended in 150-180 ml Tris-ACM buffer at 1-2×10^6 cells/ml. 2. Reaction Mixture: The reaction is carried out in 12×75 mm plastic tubes at a total volume of 1.25 ml. The reaction medium includes 0.05 ml rabbit anti-human IgE (the antigen), 0.2 ml of the test compound in water at concentrations ranging from 10-1000 μM, and 1.0 ml of the leukocyte suspension. The reaction mixture is incubated in a 37° C. shaking water bath for 60 minutes. Upon completion of the reaction, the tubes are centrifuged and the supernatants collected. The protein is removed from the supernatants by precipitation with 0.2 ml of 8% perchloric acid. 3. Histamine Assay: Histamine release is measured by the automated fluorometric method of W. Siraganian and W. Hook in Chapter 102 of the Manual of Clinical Immunology, 2nd Edition, Edited by R. Rose and H. Friedman, Published by the American Society for Microbiology, Washington, D.C. 1980. Percent inhibition is calculated as follows: [formula] The concentration which causes a 50 percent inhibition (IC50) of histamine release is interpolated from a plot of percent inhibition versus logarithm of drug concentration.

CNS = experiment: Standard mouse neuropharmacological profile; format: in vivo
Text: With the exception of the compounds wherein R4 is a lower alkyl group from 7 to 12 carbon atoms, the compounds of formula I inhibit in vitro the histamine-induced contraction of isolated guinea pig ileum and are useful in warm-blooded animals for antagonizing the action of histamine at the histamine (H1) receptor. Accordingly, the compounds of formula I can be employed as antihistamine agents for the treatment of allergic disorders, for example allergic rhinitis, vasomotor rhinitis, allergic conjunctivitis, hay fever, urticaria, and food allergies. Certain compounds of formula I lack the CNS side effects, such as sedation, normally associated with antihistamine therapy.

[2] = system: isolated guinea pig ileum; experiment: Antagonism of histamine-induced contraction of isolated guinea pig ileum; format: cell-based; conditions: Cavia porcellus; Table C; histamine final concentration 0.2 μg/ml; read-out: Inhibition IC50 (histamine-induced contraction of isolated guinea pig ileum)
Experimental: The antagonism of the effects of histamine on the contraction of isolated guinea pig ileum by the compounds of formula I can be determined by the procedure of G. Possanza, A. Bauen, and P. Stewart, Int. Arch. Allergy Appl. Immunol., 49, 289 (1975). The degree of inhibition is determined as the difference between the contraction caused by histamine (final concentration 0.2 μg/ml) alone and that seen in the presence of both histamine and the test compound. The inhibitory activity of the test compound is expressed as that concentration of the compound which causes a 50% reduction of the contractile response (IC50).

[3] = system: rat peritoneal mast cells; experiment: Inhibition of rat peritoneal mast cell histamine release; format: cell-based; conditions: Table B; in vitro, sheep anti-rat IgE or ovalbumin, 60 minutes at 37° C.; Int. = interference with test procedure
Experimental: Harvest of Peritoneal Mast Cells: After the rats are sacrificed with ether, 20 ml of Minimum Essential Medium (MEM) containing 20 units/ml heparin is injected into the peritoneum. The abdomen is massaged for one minute and the lavage fluid collected. The peritoneal cells are centrifuged at 1800 rpm for 8 minutes in cold. After two washes with Tris A buffer, the cells are resuspended in Tris ACM buffer at 2-33 10^6 cells/ml. 2. Reaction Mixture: The reaction is carried out in 12×75 mm plastic tubes at a total volume of 1.25 ml. The reaction mixture includes 0.5 ml (10-1000 μg) sheep anti-rat IgE or ovalbumin, 0.2 ml of the test compound in water at concentrations ranging from 10-1000 μM, 0.5 ml phosphatidylserine solution (20-60 μg to each tube), and 0.5 ml of cell suspension. The reaction mixture is incubated in a 37° C. shaking water bath for 60 minutes. Upon completion of the reaction, the tubes are centrifuged and the supernatants collected. The protein is removed from the supernatants by precipitation with 0.2 ml of 8% perchloric acid. 3. Histamine Assay: Histamine release is measured by the automated fluorometric method of Siraganian, supra. The concentration which causes a 50% inhibition (IC50) of histamine release is computed as in Part A.

Structure (SMILES)	IC50 [1] [µM]	CNS effects (CNS)	IC50 [2] [µM]	Inhibition IC50 (histamine release from rat peritoneal mast cells) [3]
CCOC(=O)c1ccc(NC(=O)NCCCN2CCN(Cc3ccc(Cl)cc3)CC2)cc1.Cl [Example 13, 1-{3-[4-(4-Chlorobenzyl)piperazin-1-yl]propyl}-3-(4-ethoxycarbonylphenyl)urea hydrochloride]	190	not to exert significant CNS effects	0.11	
Cl.O=C(NCCCN1CCN(Cc2ccc(Cl)cc2)CC1)Nc1ccc(C(=O)O)cc1 [Example 14, 1-{3-[4-(4-Chlorobenzyl)piperazin-1-yl]propyl}-3-(4-carboxyphenyl)urea hydrochloride]	> 1000	not to exert significant CNS effects	0.21	
CCCCCCNC(=O)NCCCN1CCN(CCCc2ccc(Cl)cc2)CC1.Cl.Cl [Example 25, 1-{3-[4-[3-(4-Chlorophenyl)propyl]piperazin-1-yl]propyl}-3-n-hexylurea dihydrochloride]	10		0.13	Int.
